From patent US8003649B2 (AstraZeneca AB, priority 2007, dated 2011) come the findings set out here.

The target of assay [1] is T1, rat GST-tagged AR-LBD (Rattus norvegicus, UniProt P15207).
T1 construct: purchased Invitrogen
T1 sequence (P15207 651-882 limits assumed): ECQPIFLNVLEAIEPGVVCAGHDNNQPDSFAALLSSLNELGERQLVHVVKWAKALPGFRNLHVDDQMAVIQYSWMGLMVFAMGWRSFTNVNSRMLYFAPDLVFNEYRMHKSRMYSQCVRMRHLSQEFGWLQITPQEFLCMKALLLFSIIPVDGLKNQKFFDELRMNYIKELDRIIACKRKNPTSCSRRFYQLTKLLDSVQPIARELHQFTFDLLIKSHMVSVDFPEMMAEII
In words: LanthaScreen TR-FRET AR Binding Assay. The following applies: n = 2; 12-point concentration response up to 100 μM. As for the experimental part:
The ability of compounds to bind to isolated Androgen Receptor Ligand binding domain (AR-LBD) was assessed in competition assays using either a Fluorescence Polarisation (FP) or a LanthaScreen™ Time-Resolved Fluorescence Resonance Energy Transfer (TR-FRET) detection end-point.
For LanthaScreen™ TR-FRET, a suitable fluorophore (Product code PV4294) and rat GST-tagged AR-LBD were purchased from Invitrogen and used to measure compound binding. The assay principle is that AR-LBD is added to a fluorescent ligand to form a receptor/fluorophore complex. A terbium-labelled anti-GST antibody is used to indirectly label the receptor by binding to a GST tag, and competitive binding is detected by a test compounds' ability to displace the fluorescent ligand resulting in a loss of TR-FRET signal between the Tb-anti-GST antibody and the tracer. The assay was performed as follows with all reagent additions carried out using the Thermo Scientific Matrix PlateMate:— • 1. […]
Compounds were dosed directly from a compound source microplate containing serially diluted compound (4 wells containing 10 mM, 0.1 mM, 1 μM and 10 nM final compound respectively) to an assay microplate using the Labcyte Echo 550. […] Competitive AR binding was expressed as an IC50 value. This was determined by calculation of the concentration of compound that was required to give a 50% reduction in tracer compound binding to AR-LBD.
Background: In TR-FRET formats the signal depends on donor and acceptor labels being close together.

Assay [2] has as its target T2, Androgen Receptor (AR) (Homo sapiens, UniProt P10275, T878A).
T2 construct: cell based immuno-fluorescence assay using the LNCaP prostate epithelial cell line; endogenous in cells; host or cells: LNCaP clone FGC (ATCC CRL-1740)
T2 sequence (P10275 1-920 T878A): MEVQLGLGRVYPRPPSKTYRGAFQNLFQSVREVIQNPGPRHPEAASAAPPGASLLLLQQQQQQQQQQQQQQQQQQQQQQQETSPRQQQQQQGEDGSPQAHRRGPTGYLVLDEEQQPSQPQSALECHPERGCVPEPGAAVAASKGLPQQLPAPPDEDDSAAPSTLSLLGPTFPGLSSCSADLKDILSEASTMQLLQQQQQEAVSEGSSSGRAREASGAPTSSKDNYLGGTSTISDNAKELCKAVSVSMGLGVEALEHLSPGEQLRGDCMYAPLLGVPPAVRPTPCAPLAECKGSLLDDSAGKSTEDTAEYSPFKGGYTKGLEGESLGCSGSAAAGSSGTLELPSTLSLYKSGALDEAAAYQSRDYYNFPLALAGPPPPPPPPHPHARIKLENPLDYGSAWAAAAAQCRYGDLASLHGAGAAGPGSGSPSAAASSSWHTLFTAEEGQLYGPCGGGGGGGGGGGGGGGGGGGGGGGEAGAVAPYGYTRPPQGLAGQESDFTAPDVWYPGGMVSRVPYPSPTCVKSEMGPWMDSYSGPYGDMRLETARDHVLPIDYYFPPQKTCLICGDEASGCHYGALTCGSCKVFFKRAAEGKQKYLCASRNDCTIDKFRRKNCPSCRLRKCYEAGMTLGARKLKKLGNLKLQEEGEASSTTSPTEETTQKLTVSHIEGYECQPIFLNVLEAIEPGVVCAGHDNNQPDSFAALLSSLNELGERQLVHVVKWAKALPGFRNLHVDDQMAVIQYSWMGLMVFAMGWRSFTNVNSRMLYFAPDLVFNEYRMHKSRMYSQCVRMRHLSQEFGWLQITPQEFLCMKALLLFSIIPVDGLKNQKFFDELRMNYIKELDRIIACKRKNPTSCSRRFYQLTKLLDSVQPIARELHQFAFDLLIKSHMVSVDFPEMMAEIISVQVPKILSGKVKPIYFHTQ
In words: LNCaP Androgen Receptor Down-regulation Cell Assay (immunofluorescence end point). Type of assay: cell-based. The following applies: LNCaP prostate carcinoma cells, compound incubation 20-22 hours, 50% reduction of the AR signal; read-out: Androgen Receptor Down-regulation Assay (a) IC50/μM. An outline of the steps: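 LNCaP cells in medium with 5% charcoal-stripped FBS were plated overnight, then treated with a compound dilution series for 20-22 h at 37° C. After fixation, permeabilisation and immunostaining, AR-associated green fluorescence was quantified by laser-scanning microplate cytometry; AR down-regulation expressed as IC50 from fitted dose-response curves.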

The term IC50 denotes the concentration that gives 50% inhibition. A low value points to inhibition by little substance. `OC1(c2cccnc2)CCN(c2ccc3nnc(C(F)(F)F)n3n2)CC1` [Example 511, 4-pyridin-3-yl-1-[3-(trifluoromethyl)[1,2,4]triazolo[4,3-b]pyridazin-6-yl]piperidin-4-ol] yielded an IC50 in assay [1] of over 100 µM.
On to `Cn1nccc1CCOc1ccc(C2CCN(c3ccc4nnc(C(F)(F)F)n4n3)CC2)cc1` [Example 513, 6-[4-[4-[2-(1-methyl-1H-pyrazol-5-yl)ethoxy]phenyl]piperidin-1-yl]-3-(trifluoromethyl)[1,2,4]triazolo[4,3-b]pyridazine], for which the half-inhibitory concentration (IC50) in assay [1] stood at 1.3 µM. Also, the DC50 in assay [2] is 0.24 µM.
